Test results taken from patent publication US8765465B2, “Efficient production and use of highly cardiogenic progenitors and cardiomyocytes from embryonic and induced pluripotent stem cells” (Kyoto University, priority 2008, dated 2014).

B1: Dkk1: factor from R&D Systems (protein, UniProt O94907 32-266, looked up)
Dickkopf-related protein 1: TLNSVLNSNAIKNLPPPLGGAAGHPGSAVSAAPGILYPGGNKYQTIDNYQPYPCAEDEECGTDEYCASPTRGGDAGVQICLACRKRRKRCMRHAMCCPGNYCKNGICVSSDQNHFRGEIEETITESFGNDHSTLDGYSRRTTLSSKMYHTKGQEGSVCLRSSDCASGLCCARHFWSKICKPVLKEGQVCTKHRRKGSHGLEIFQRCYCGEGLSCRIQKDHHQASNSSRLHTCQRH
B2: wnt3a: factor from R&D Systems (protein, UniProt P56704 19-352, looked up)
Protein Wnt-3a: SYPIWWSLAVGPQYSSLGSQPILCASIPGLVPKQLRFCRNYVEIMPSVAEGIKIGIQECQHQFRGRRWNCTTVHDSLAIFGPVLDKATRESAFVHAIASAGVAFAVTRSCAEGTAAICGCSSRHQGSPGKGWKWGGCSEDIEFGGMVSREFADARENRPDARSAMNRHNNEAGRQAIASHMHLKCKCHGLSGSCEVKTCWWSQPDFRAIGDFLKDKYDSASEMVVEKHRESRGWVETLRPRYTYFKVPTERDLVYYEASPNFCEPNPETGSFGTRDRTCNVSSHGIDGCDLLCCGRGHNARAERRREKCRCVFHWCCYVSCQECTRVYDVHTCK

What was measured:
[1] = test system: Flk1+ mesoderm cells from EMG7 mouse ES cells; experiment: Cardiomyocyte induction from ES cell-derived Flk1+ mesoderm cells on OP9 (experiment 1); format: cell-based; settings: added to Flk1+ cells
Description: Undifferentiated ES cells were cultured on OP9 cells or type IV collagen (Col. IV)-coated dishes (ES-d0) for 96-108 h in differentiation medium (see Methods) to induce differentiation to Flk1^+ cells. Flk1^+/E-cadherin^− mesoderm cells obtained by FACS were plated onto OP9 stroma cells to induce further differentiation to cardiomyocytes (designated as Flk-d0). FCV cells appeared at Flk-d2 as Flk1^+/CXCR4^+/vascular endothelial cadherin^− population. Beating colonies started to be observed by Flk-d4. Appearance of alpha-MHC promoter-driven GFP^+ cardiomyocytes were evaluated and collected at Flk-d6. Experiment 1: differentiation from mesoderm to cardiomyocytes. […] Experiment 2: differentiation from undifferentiated ES cells to mesoderm. […] Experiment 3: differentiation from mesoderm to cardiac progenitors. […] Experiment 4: differentiation from cardiac progenitors to cardiomyocytes.
After 96-108 h of ES cell differentiation, cultured cells were harvested and stained with allophycocyanin (APC)-conjugated AVAS12 and FITC-conjugated ECCD2. […] PKH-negative populations were analyzed and sorted as ES cell-derived cells. […] For FACS for cardiomyocytes, cells were harvested after 6 days culture of Flk1^+ cells on OP9 cells (Flk-d6), GFP^+ population was evaluated and sorted as differentiated cardiomyocytes.

Flk1+ cells = experiment: Mesoderm-specific treatment Flk-d0-2, cardiomyocytes at Flk-d6 (experiment 5); format: cell-based, mouse; settings: added only Flk-d0-2
Description: Beating colonies started to be observed by Flk-d4. […] Experiment 1: differentiation from mesoderm to cardiomyocytes. […] Experiment 2: differentiation from undifferentiated ES cells to mesoderm. […] Experiment 3: differentiation from mesoderm to cardiac progenitors. […] Experiment 4: differentiation from cardiac progenitors to cardiomyocytes.
Medium was replaced every 2 days.

Molecule | effect on cardiomyocyte induction (cTnT staining) [1] | cardiomyocytes at Flk-d6 after mesoderm-specific addition (Flk1+ cells) | effect on cardiomyocytes relative to that of CSA (Flk1+ cells)
11R-VIVIT | no significant effect | – | –
TGF-β | – | significant decrease | –
C=CC[C@@H]1/C=C(\C)C[C@H](C)C[C@H](OC)[C@H]2O[C@@](O)(C(=O)C(=O)N3CCCC[C@H]3C(=O)O[C@H](/C(C)=C/[C@@H]3CC[C@@H](O)[C@H](OC)C3)[C@H](C)[C@@H](O)CC1=O)[C@H](C)C[C@@H]2OC [FK506] | no significant effect | – | –
B1 | – | significantly increased | much weaker
B2 | – | significant decrease | –
